The values below are quoted from earlier work in patent US10493079B2, “Stable carfilzomib formulations” (Cipla Limited, priority 2016, dated 2019).

As to `CC(C)C[C@H](NC(=O)[C@H](CCc1ccccc1)NC(=O)CN1CCOCC1)C(=O)N[C@@H](Cc1ccccc1)C(=O)N[C@@H](CC(C)C)C(=O)[C@@]1(C)CO1` [carfilzomib], the aqueous solubility result is reported as “extremely low”.
